Molecules are shown by their SMILES.

This note sets out measurements from PMC5996281, “Salinity Tolerance of Two Potato Cultivars (Solanum tuberosum) Correlates With Differences in Vacuolar Transport Activity” (Frontiers in Plant Science, 2018).

Experiment [1] relates to T1, V-H^+-ATPase (cv. Mozart).
T1 construct: gene VHA-A; subunit A 69 kDa on blot; with V-type proton ATPase 16 kDa proteolipid subunit; V-type proton ATPase subunit a
Nature of the experiment: ACMA fluorescence quench, initial rate of H+ pumping in tonoplast vesicles. The conditions noted are these: 10 mM Mops-TRIS pH 7.0, 5 mM MgCl2, 100 mM KCl; vesicles from control plants (0 mM NaCl). It counts as biochemical, Solanum tuberosum.

In experiment [2] the test system is T2, V-H^+-ATPase (cv. Desiree).
T2 construct: gene VHA-A; subunit A 69 kDa on blot; with V-type proton ATPase 16 kDa proteolipid subunit; V-type proton ATPase subunit a
The experiment is described as above. It counts as biochemical, Solanum tuberosum. The conditions noted are these: 10 mM Mops-TRIS pH 7.0, 5 mM MgCl2, 100 mM KCl; vesicles from control plants (0 mM NaCl).

Experiment [3] deals with T3, V-H^+-PPase (cv. Desiree).
T3 construct: gene StVP1
The conditions noted are these: 10 mM Mops-TRIS pH 7.0, 5 mM MgCl2, 100 mM KCl; vesicles from control plants (0 mM NaCl).

In a further experiment the test system is T4, V-H^+-PPase (cv. Mozart).
T4 construct: gene StVP1
The conditions noted are these: 10 mM Mops-TRIS pH 7.0, 5 mM MgCl2, 100 mM KCl; vesicles from control plants (0 mM NaCl).

The target in another experiment is T5, V-H^+-ATPase.
T5 construct: gene VHA-c; native V1Vo complex in tonoplast-enriched leaf vesicles; with V-type proton ATPase catalytic subunit A; V-type proton ATPase subunit B
Nature of the experiment: ACMA fluorescence quench, ATP-driven H+ pumping in tonoplast vesicles. The class given is biochemical, Solanum tuberosum. The settings on record: 1 mM Mg ATP, 10 mM Mops-TRIS pH 7.0, 5 mM MgCl2, 100 mM KCl; inhibition; cultivar not told.

A word on the Km: it is the concentration of substrate that gives half-maximal velocity. With `Nc1ncnc2c1ncn2[C@@H]1O[C@H](COP(=O)(O)OP(=O)(O)OP(=O)(O)O)[C@@H](O)[C@H]1O` [ATP], the Michaelis-Menten constant (Km) in experiment [1] was found to be 28 µM; in experiment [2], 81 µM.

Take `O=P(O)(O)OP(=O)(O)O` [PPi]: the Km in experiment [3] worked out at 7.3 ± 1.1 µM; with V-H^+-PPase (cv. Mozart), 9.6 ± 0.8 µM.

By EC50 is commonly meant the concentration needed to bring the measured effect to its halfway point. On V-H^+-ATPase, `CO/C1=C\C(C)=C\[C@@H](C)[C@@H](O)[C@@H](C)C/C(C)=C/C=C/[C@H](OC)[C@@H]([C@@H](C)[C@@H](O)[C@H](C)[C@@]2(O)C[C@@H](O)[C@H](C)[C@@H](C(C)C)O2)OC1=O` [bafilomycin] gave an EC50 of 200 pM.
